Counter-ions that a name gives are not always drawn.
Experiments:
[1] = target: T1, hERG (Homo sapiens, UniProt Q12809); assay: hERG fluorescence polarization inhibition experiment; conditions: hERG cell membrane, 25° C. 2 hours, read-out: hERG (IC50 range, competitive binding vs tracer)
T1 construct: purchased ThermoFisher; host or cells: hERG cell membrane supplied with the kit
Procedure: hERG (Ether-a-go-go-related Gene Potassium Channel) Inhibition Experiment
Reagent: Predictor™ hERG Fluorescence Polarization Assay Kit, Manufacturer: ThermoFisher
The above test kit was used to evaluate the potential of the compound for inducing heart QT prolongation. According to the method as indicated in the specification of the test kit, the test compound, the positive control (E4031) and negative control (Experimental buffer solution) in the kit were added to a microwell plate containing hERG cell membrane, and then a tracer having high affinity to hERG was added. The microwell plate was then incubated at 25° C. for 2 hours, a BMG PHAREStar polyfunctional enzyme marker was used to test the variations in the fluorescent polarization value. By calculating the percent inhibition rates (%) at different concentrations, the range of the half inhibition concentration (IC50) was determined:
Percent inhibition rate (%)=(1-(mP of the test compound-mP of 30 μM E4031)/(mP of experimental buffer solution-mP of 30 μM E4031))*100.

[2] = target: T2, VAP-1 (Homo sapiens, UniProt Q16853); assay: Inhibition of the enzymatic activity of VAP-1 in vitro (Amplex Red); assay type: biochemical; conditions: VAP-1 protein about 20 nM, 10 min pre-incubation, benzylamine substrate; read-out: IC50, inhibition against the enzymatic activity of VAP-1
T2 construct: purchased R&D Systems
T2 sequence (Q16853 1-763): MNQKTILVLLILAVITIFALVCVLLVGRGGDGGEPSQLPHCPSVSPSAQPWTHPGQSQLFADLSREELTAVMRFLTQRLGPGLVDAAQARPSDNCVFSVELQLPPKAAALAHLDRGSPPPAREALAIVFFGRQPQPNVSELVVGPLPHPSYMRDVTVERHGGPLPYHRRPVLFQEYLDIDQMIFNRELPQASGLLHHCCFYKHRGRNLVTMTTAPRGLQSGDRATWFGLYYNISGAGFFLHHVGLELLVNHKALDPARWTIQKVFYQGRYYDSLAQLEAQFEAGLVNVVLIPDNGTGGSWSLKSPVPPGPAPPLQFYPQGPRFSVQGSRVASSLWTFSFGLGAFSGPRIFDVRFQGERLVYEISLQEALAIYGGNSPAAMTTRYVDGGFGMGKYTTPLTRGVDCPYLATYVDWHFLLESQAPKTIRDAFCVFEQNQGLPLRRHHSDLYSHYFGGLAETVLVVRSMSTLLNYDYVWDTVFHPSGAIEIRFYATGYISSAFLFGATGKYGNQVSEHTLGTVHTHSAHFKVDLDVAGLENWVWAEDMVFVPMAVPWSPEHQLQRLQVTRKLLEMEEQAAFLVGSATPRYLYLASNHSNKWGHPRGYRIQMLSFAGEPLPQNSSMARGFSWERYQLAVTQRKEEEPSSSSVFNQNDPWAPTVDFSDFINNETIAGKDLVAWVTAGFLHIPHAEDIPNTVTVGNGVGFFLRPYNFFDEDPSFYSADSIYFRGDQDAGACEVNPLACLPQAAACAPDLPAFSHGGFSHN
Procedure: Inhibition Experiment Against the Enzymatic Activity of VAP-1(Vascular Adhesion Protein 1) in vitro
Test kit: Amplex® Red Monoamine Oxidase Assay, Manufacturer: ThermoFisher
Reaction buffer solution: 50 mM PBS, pH 7.4
Enzyme: VAP-1, Manufacturer: R&D Systems
VAP-1 protein (about 20 nM) and different concentrations of the test compound were pre-incubated at room temperature for 10 minutes, followed by an addition of […] benzylamine hydrochloride, 1 U/mL HRP and 200 μM Amplex Red reagent according to the specification of the test kit to start the reaction. The reaction plate was placed in the enzyme marker, and in kinetic mode, fluorescence signals were measured at Ex/Em=540/590 nm. The relative inhibition activity of each concentration group was calculated, wherein the ratio (slope) of fluorescence signal to reaction time in the linear range is the reaction rate, the vehicle group (DMSO) is the negative control, and the reaction buffer solution group (without enzymes and the compounds) is the blank control. The half inhibition concentration (IC50) of the compound was calculated according to four-parameter model fitting curve.

T1 sequence (Q12809 whole entry): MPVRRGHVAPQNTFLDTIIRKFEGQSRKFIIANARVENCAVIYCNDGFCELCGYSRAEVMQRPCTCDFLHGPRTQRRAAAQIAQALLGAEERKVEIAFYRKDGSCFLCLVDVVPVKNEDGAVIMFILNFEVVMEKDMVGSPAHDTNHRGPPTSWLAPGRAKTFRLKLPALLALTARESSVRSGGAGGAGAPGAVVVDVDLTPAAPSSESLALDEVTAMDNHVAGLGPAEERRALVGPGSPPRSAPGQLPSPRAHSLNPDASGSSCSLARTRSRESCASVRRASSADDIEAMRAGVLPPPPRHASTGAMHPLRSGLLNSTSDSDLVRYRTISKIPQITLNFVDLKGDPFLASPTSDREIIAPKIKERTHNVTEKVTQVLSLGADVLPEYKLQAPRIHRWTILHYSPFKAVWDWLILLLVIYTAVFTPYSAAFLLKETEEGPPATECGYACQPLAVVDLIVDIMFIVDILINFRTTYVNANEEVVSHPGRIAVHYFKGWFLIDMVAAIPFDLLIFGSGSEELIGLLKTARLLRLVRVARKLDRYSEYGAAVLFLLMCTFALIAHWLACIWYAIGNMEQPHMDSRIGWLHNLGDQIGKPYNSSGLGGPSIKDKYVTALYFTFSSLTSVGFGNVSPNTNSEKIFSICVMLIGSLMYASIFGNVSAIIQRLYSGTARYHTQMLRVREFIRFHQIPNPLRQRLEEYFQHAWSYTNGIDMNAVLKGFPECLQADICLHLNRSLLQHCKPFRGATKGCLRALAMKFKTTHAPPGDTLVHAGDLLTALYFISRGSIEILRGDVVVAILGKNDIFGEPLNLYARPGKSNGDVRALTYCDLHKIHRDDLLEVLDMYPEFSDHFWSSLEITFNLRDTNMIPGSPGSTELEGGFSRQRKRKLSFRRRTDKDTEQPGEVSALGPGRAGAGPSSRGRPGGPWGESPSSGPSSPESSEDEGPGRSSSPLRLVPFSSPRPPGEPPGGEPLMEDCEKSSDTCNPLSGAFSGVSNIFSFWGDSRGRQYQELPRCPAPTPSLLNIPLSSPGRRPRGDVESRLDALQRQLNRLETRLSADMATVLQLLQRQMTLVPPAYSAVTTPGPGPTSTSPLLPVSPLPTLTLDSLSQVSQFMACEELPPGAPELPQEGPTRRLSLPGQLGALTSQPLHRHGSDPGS

Compound | IC50 [2] | IC50 [1]
NCC(=CF)COc1ccc(C(=O)Nc2cccc3ccccc23)cc1 [TM8, 4-((2-(aminomethyl)-3-fluoroallyl)oxy)-N-(naphthyl)benzoamide trifluoroacetate] | 2.2 ± 0.1 nM | –
NC/C(=C\F)COc1ccc2c(c1)CCNC2=O [TM26-E, (E)-6-((2-aminomethyl-3-fluoroallyl)oxy)-3,4-dihydroisoquinolin-1(2H)-one trifluoroacetate] | 9.9 ± 1.2 nM | > 10000 nM
NC/C(=C\F)COc1ccc2c(c1)CN(Cc1ccc(Cl)cc1)C2=O [TM33-E, (E)-5-((2-aminomethyl-3-fluoroallyl)oxy)-2-(4-chlorobenzyl)isoindolin-1-one] | 4.9 ± 0.5 nM | > 10000 nM
NC/C(=C/F)COc1ccc2c(c1)CN(Cc1ccc(Cl)cc1)C2=O [TM33-Z, (Z)-5-((2-aminomethyl-3-fluoroallyl)oxy)-2-(4-chlorobenzyl)isoindolin-1-one] | 6.3 ± 1.2 nM | –
NC/C(=C\F)COc1ccc(-c2nc3ccc(Cl)cc3s2)cc1 [TM41-E, (E)-2-(4-(6-chloro-benzothiazol-2-yl)phenoxymethyl)-3-fluoroallylamine trifluoroacetate] | 3.1 ± 0.5 nM | –
NC/C(=C/F)COc1ccc(-c2nc3ccc(Cl)cc3s2)cc1 [TM41-Z, (Z)-2-(4-(6-chloro-benzothiazol-2-yl)phenoxymethyl)-3-fluoroallylamine trifluoroacetate] | 3.5 ± 0.4 nM | –
NC/C(=C/F)COc1ccc(-c2nc3ccccc3[nH]2)cc1 [TM42-Z, (Z)-2-(4-(1H-benzoimidazol-2-yl)phenoxymethyl)-3-ftuoroallylamine trifluoroacetate] | 1.5 ± 0.1 nM | > 10000 nM
NC/C(=C\F)COc1ccc(C(=O)N2CCC(c3ccccc3)CC2)cc1 [TM44-E, (E)-(4-((2-aminomethyl-3-fluoroallyl)oxy)phenyl)-(4-phenylpiperidine-1-yl) methanone trifluoroacetate] | 12.9 ± 4.4 nM | –
NC/C(=C/F)COc1ccc(C(=O)N2CCC(c3ccccc3)CC2)cc1 [TM44-Z, (Z)-(4-((2-aminomethyl-3-fluoroallyl)oxy)phenyl)-(4-phenylpiperidine-1-yl) methanone trifluoroacetate] | 9.7 ± 0.9 nM | –
NC/C(=C\F)COc1ccc(C(=O)N2CCc3ccccc3C2)cc1 [TM45-E, (E)-(4-((2-aminomethyl-3-fluoroallyl)oxy)phenyl)-(3,4-di hydroisoquinoline-2 (1H)-yl)methanone trifluoroacetate] | 2.4 ± 0.7 nM | > 10000 nM
NC/C(=C/F)COc1ccc(C(=O)N2CCc3ccccc3C2)cc1 [TM45-Z, (Z)-(4-((2-aminomethyl-3-fluoroallyl)oxy)phenyl)-(3,4-dihydroiso-quinoline-2(1H)-yl)methanone trifluoroacetate] | 1.1 ± 0.1 nM | > 10000 nM
NC/C(=C\F)COc1ccc(C(=O)N2CCC(c3ccccc3)CC2)cc1F [TM48-E, (E)-(4-((2-(aminomethyl)-3-fluoroally)oxy)-3-fluorophenyl)-(4-phenylpiperidin-1-yl)methanone trifluoroacetate] | 9.2 ± 1.1 nM | –
NC/C(=C/F)COc1ccc(C(=O)N2CCC(c3ccccc3)CC2)cc1F [TM48-Z, (Z)-(4-((2-(aminomethyl)-3-fluoroallyl)oxy)-3-fluorophenyl)-(4-phenylpiperidin-1-yl)methanone trifluoroacetate] | 10.6 ± 1.4 nM | –
NC/C(=C\F)COc1ccc(C(=O)N[C@H]2CCCc3ccccc32)cc1 [TM63-E, (E)-(S)-N-(1,2,3,4-tetrahydro-1-naphthyl)-4-(2-aminomethyl-3-fluoroallyl)oxy)-benzamide trifluoroacetate] | 5.7 ± 0.8 nM | > 10000 nM
NC/C(=C\F)COc1ccc(C(=O)Nc2ccc(F)cc2)cc1Cl [TM65-E, (E)-N-(4-fluorophenyl)-4-((2-aminomethyl-3-fluoroallyl)oxy)-3-chloro-benzamide trifluoroacetate] | 4.1 ± 0.7 nM | –
NC/C(=C/F)COc1ccc(C(=O)Nc2ccc(F)cc2)cc1Cl [TM65-Z, (Z)-N-(4-fluorophenyl)-4-((2-aminomethyl-3-fluoroallyl)oxy)-3-chloro-benzamide trifluoroacetate] | 1.7 ± 0.3 nM | –
NCC(=CF)COc1ccc(C(=O)N2CCc3ccccc3C2)cc1F [TM72, (4-((2-aminomethyl-3-fluoroallyl)oxy)-3-fluorophenyl)-(3,4-tetrahydroisoquinoline-2(1H)-yl)methanone trifluoroacetate] | 3.4 ± 0.5 nM | –
NC/C(=C\F)COc1ccc(C(=O)N2CCc3c(Cl)cccc3C2)cc1F [TM73-E, (E)-(4-((2-aminomethyl-3-fluoroallyl)oxy)-3-fluorophenyl)-(5-chloro-3,4-di-hydroisoquinoline-2(1H)-yl)methanone trifluoroacetate] | 4.2 ± 0.3 nM | –
NC/C(=C/F)COc1ccc(C(=O)N2CCc3c(Cl)cccc3C2)cc1F [TM73-Z, (Z)-(4-((2-aminomethyl-3-fluoroallyl)oxy)-3-fluorophenyl)-(5-chloro-3,4-di-hydroisoquinoline-2(1H)-yl)methanone trifluoroacetate] | 3.7 ± 0.3 nM | –
NC/C(=C\F)COc1ccc(-c2nc3ccc(Cl)cc3s2)cc1F [TM74-E, (E)-2-(4-(6-chloro-benzothiazol-2-yl)-2-fluorophenoxymethyl)-3-fluoroallylamine trifluoroacetate trifluoroacetate] | 3.2 ± 0.2 nM | –
NC/C(=C/F)COc1ccc(-c2nc3ccc(Cl)cc3s2)cc1F [TM74-Z, (Z)-2-(4-(6-chloro-benzothiazol-2-yl)-2-fluorophenoxymethyl)-3-fluoroallylamine trifluoroacetate trifluoroacetate] | 5.3 ± 0.2 nM | –

More lines, main results first:

IC50 [2] | Compound | IC50 [1]
0.5 nM | NCC(=CF)COc1ccc(C(=O)Nc2ccccc2)cc1 [TM1, N-phenyl-4-((2-aminomethyl-3-fluoroallyl)oxy)-benzamide trifluoroacetate] | > 10000 nM
1 ± 0.1 nM | NCC(=CF)COc1ccc(-c2ncccn2)cc1 [TM39, 2-(4-(2-pyrimidyl)phenoxymethyl)-3-fluoroallylamine trifluoroacetate] | > 30000 nM
6.5 ± 0.5 nM | NCC(=CF)COc1ccc(C(=O)N2CCC(c3ccccc3)CC2)cc1F [TM48, (4-((2-aminomethyl-3-fluoroallyl)oxy)-3-fluorophenyl)-(4-phenylpiperidin-1-yl)methanone trifluoroacetate] | –
1.8 ± 0.2 nM | CN(C)c1cccc(NC(=O)c2ccc(OCC(=CF)CN)cc2)c1 [TM62, N-(3-dimethylaminophenyl)-4-(2-aminomethyl-3-fluoroallyloxy)-benzamide trifluoroacetate] | > 30000 nM
9.9 ± 1.8 nM | NCC(=CF)COc1ccc(C(=O)N2CCc3cc(C(F)(F)F)ccc3C2)cc1 [TM68, (4-(2-aminomethyl-3-fluoroallyloxy)phenyl)-(6-trifluoromethyl-3,4-dihydroisoquinol-2(1H)-yl)-methanone trifluoroacetate] | –
10.4 ± 1.4 nM | NCC(=CF)COc1ccc(C(=O)N2CCc3ccccc3[C@@H]2c2ccccc2)cc1 [TM69, (S)-(4-(2-aminomethyl)-3-fluoroallyloxy)phenyl)-(1-phenyl-3,4-dihydroisoquinol-2(1H)-yl)-methanone trifluoroacetate] | –
2.4 ± 0.2 nM | NCC(=CF)COc1ccc(C(=O)N2Cc3ccc(Cl)cc3C2)cc1 [TM71, (4-(2-aminomethyl-3-fluoroallyloxy)phenyl)-(5-chloroisoindolin-2-yl)-methanone trifluoroacetate] | –

Reference: US20200087248A1, “Fluoroallylamine Derivative And Use Thereof” (SICHUAN KELUN-BIOTECH BIOPHARMACEUTICAL CO., LTD., priority 2017, published 2020)
